{"source": "patent US6586450B2", "about": "“Phenethyl-thiourea compounds and use” (Parker Hughes Institute, priority 1999, dated 2003)", "key": {"[1]": {"experiment": "Microculture tetrazolium Assay (MTA, XTT) for cytotoxicity", "assay_type": "cell-based, human", "conditions": "human, PBMC; Table 1; cytotoxicity, MTA"}, "[2]": {"molecular_target": "T1, purified recombinant HIV RT (Human immunodeficiency virus type 1 group M subtype B, UniProt P04585)", "T1 construct": "against purified recombinant HIV RT using the cell-free Quan-T-RT system", "experiment": "Purified recombinant HIV RT inhibition, cell-free Quan-T-RT scintillation proximity assay", "assay_type": "biochemical", "experimental": "In the assay, a DNA/RNA template is bound to SPA beads via a biotin/strepavidin linkage. The primer DNA is a 16-mer oligo(T) which has been annealed to a poly(A) template. The primer/template is bound to a strepavidin-coated SPA bead.\n^3H-TTP is incorporated into the primer by reverse transcription. […] The compound being tested was added to the reaction mixture at 0.001 μM-100 μM concentrations. […] The reaction was stopped by addition of 0.2 ml of 120 mM EDTA. The samples were counted in an open window using a Beckman LS 7600 instrument and IC50 values were calculated by comparing the measurements to untreated samples."}, "[3]": {"tested_on": "HIV-1 strain HTLVIIIB", "experiment": "Inhibition of HIV-1 HTLVIIIB replication in PBMC (p24 antigen EIA)", "assay_type": "cell-based", "experimental": "The HIV strain HTLVIIIB was kindly provided by Dr. Neal T.Wetherall, VIROMED Laboratories, Inc., and was propagated in CCRF-CEM cells.\nSubsequently, cells were cultured in 96-well microplates (100 μL/well; 2×10^6 cells/mL, triplicate wells) in the presence of various inhibitor concentrations. […] Ag. […] The applied p24 EIA was the unmodified kinetic assay commercially available from Coulter Corporation/Immunotech, Inc. (Westbrook, Me.).\n(§1) Percent inhibition of viral replication was calculated by comparing the p24 values from the test substance-treated infected cells with p24 values from untreated infected cells (i.e, virus controls)."}, "[4]": {"tested_on": "PBMC", "experiment": "Microculture tetrazolium Assay (MTA, XTT) for cytotoxicity", "assay_type": "cell-based, human"}, "[5]": {"tested_on": "multidrug resistant HIV-1 strain RT-MDR with a V106A mutation", "experiment": "microbe, parasite or virus in culture", "assay_type": "cell-based", "experimental": "(§2) Normal human peripheral blood mononuclear cells (PBMNC) from HIV-negative donors were cultured 72 hours in RPMI 1640 supplemented with 20% (v/v) heat-inactivated fetal bovine serum (FBS), 3% interleukin-2,2 mM L-glutairine, 25 mM HEPES, 2 μL, NAHCO, […] gentamicin, and 4 μg/mL phytohemagglutinin prior to exposure to HIV-1 or other HIV strain at a multiplicity of infection (MOI) of 0.1 during a one-hour adsorption period at 37° C. in a humidified 5% CO2 atmosphere. Subsequently, cells were cultured in 96-well microplates (100 μL/well; 2×10^6 cells/mL, triplicate wells) in the presence of various inhibitor concentrations. Aliquots of culture supernatants were removed from the wells on the 7th day after infection for p24 antigen p24 enzyme immunoassays (EIA), as previously described in Erice et al., 1993, Antimicrob. Ag. Chemotherapy 37:385-838. The applied p24 EIA was the unmodified kinetic assay commercially available from Coulter Corporation/Immunotech, Inc. (Westbrook, Me.).\nas §1"}, "[6]": {"tested_on": "NNI-resistant HIV-1 strain A17 with a Y181C mutation", "experiment": "microbe, parasite or virus in culture", "assay_type": "cell-based", "conditions": "for IC50: read-out: IC50 A17 (Y181C)", "experimental": "as §2, §1"}, "[7]": {"conditions": "Human immunodeficiency virus 1, PBMC, read-out: IC50 HTLV mB"}, "[8]": {"conditions": "Human immunodeficiency virus 1, PBMC, read-out: IC50 RT-MDR"}, "[9]": {"conditions": "Human immunodeficiency virus 1, PBMC"}, "[10]": {"conditions": "Table 1, recombinant HIV RT, read-out: IC50 rRT"}, "[11]": {"conditions": "Table 2, recombinant HIV reverse transcriptase, read-out: IC50 rRT"}, "[12]": {"conditions": "Human immunodeficiency virus 1, PBMC, Table 2, wild-type HIV-1, read-out: IC50 p24"}, "[13]": {"conditions": "Human immunodeficiency virus 1, Table 1, p24 production in PBMC, read-out: IC50 HTLV mB"}, "[14]": {"conditions": "read-out: IC50 rRT, Table 2, recombinant HIV reverse transcriptase"}}, "note": "Like-named read-outs stand apart in the source and are kept apart here.", "data": [{"smiles": "Oc1ccc(CCNC(=S)Nc2ccc(Br)cn2)cc1", "note": "[HI-256, N-[2-(4-hydroxyphenethyl)]-N′-[2-(5-bromopyridyl)]thiourea]", "values": [{"measurement": "CC50", "setting": "[1]", "result": "> 100000", "unit": "nM"}, {"measurement": "IC50", "setting": "[2]", "result": 87700, "unit": "nM"}, {"measurement": "IC50", "setting": "[3]; [7]", "result": 3070, "unit": "nM"}]}, {"smiles": "Cc1ccc(CCNC(=S)Nc2ccc(Br)cn2)cc1", "note": "[HI-244, N-[2-(4-methylphenethyl)]-N′-[2-(5-bromopyridyl)]thiourea]", "values": [{"measurement": "CC50", "setting": "[1]", "result": 71000, "unit": "nM"}, {"measurement": "cytotoxicity to PBMC", "setting": "[4]; at a concentration", "result": "not cytotoxic"}, {"measurement": "IC50", "setting": "[2]", "result": 100, "unit": "nM"}, {"measurement": "IC50", "setting": "[3]; [7]", "result": 7, "unit": "nM"}, {"measurement": "IC50", "setting": "[3]; Human immunodeficiency virus 1, PBMC, read-out: IC50 for inhibition of replication of HIV-1 strain HTLVIIIB in PBMC", "result": 7, "unit": "nM"}, {"measurement": "IC50", "setting": "[3]; Human immunodeficiency virus 1, PBMC, read-out: IC50 p24", "result": 7, "unit": "nM"}, {"measurement": "selectivity index", "setting": "[3]; against wild-type HIV-1 strain HTLVIIIB", "result": "> 10,000"}, {"measurement": "melting point", "result": "159 to 162", "unit": "°C"}, {"measurement": "IC50", "setting": "[5]; [8]", "result": "> 1", "unit": "nM"}, {"measurement": "times more effective than trovirdine", "setting": "[5]; RT-MDR strain, V106A plus 74V, 41L, 215Y", "result": 20, "unit": "times"}, {"measurement": "resistance of mutant strain to compound", "setting": "[5]; V106A mutant strain (RT-MDR)", "result": "no resistance"}, {"measurement": "selectivity index", "setting": "[5]; against multidrug-resistant V106A mutant strain RT-MDR", "result": "> 71,000"}, {"measurement": "times more potent than trovirdine", "setting": "[6]; A17 strain, Y181C", "result": 7, "unit": "times"}, {"measurement": "IC50", "setting": "[6]; [9]", "result": 70, "unit": "nM"}, {"measurement": "higher potency relative to trovirdine", "setting": "[6]; NNI-resistant A17 strain (Y181C mutation)", "result": 7, "unit": "fold"}, {"measurement": "resistance of mutant strain to compound", "setting": "[6]; Y181C mutant strain (A17 strain)", "result": 10, "unit": "fold"}, {"measurement": "selectivity index", "setting": "[6]; against NNI-resistant Y181C mutant strain A17", "result": "> 1,000"}]}, {"smiles": "Fc1ccc(CCNC(=S)Nc2ccc(Br)cn2)cc1", "note": "[HI-242, N-[2-(4-fluorophenethyl)]-N′-[2-(5-bromopyridyl)]thiourea]", "values": [{"measurement": "IC50", "setting": "[2]; [10]", "result": 6400, "unit": "nM"}, {"measurement": "IC50", "setting": "[2]; [11]", "result": 6400, "unit": "nM"}]}, {"smiles": "S=C(NCCc1ccc(Br)cc1)Nc1ccc(Br)cn1", "note": "[HI-243, N-[2-(4-bromophenethyl)]-N′-[2-(5-bromopyridyl)]thiourea]", "values": [{"measurement": "CC50", "setting": "[1]", "result": "> 100000", "unit": "nM"}, {"measurement": "IC50", "setting": "[2]", "result": 900, "unit": "nM"}, {"measurement": "IC50", "setting": "[3]; [12]", "result": 70, "unit": "nM"}, {"measurement": "IC50", "setting": "[3]; [13]", "result": 70, "unit": "nM"}, {"measurement": "melting point", "result": "184 to 185", "unit": "°C"}, {"measurement": "IC50", "setting": "[5]; [8]", "result": "> 1", "unit": "nM"}, {"measurement": "IC50", "setting": "[6]; [9]", "result": 1000, "unit": "nM"}]}, {"smiles": "S=C(NCCc1ccc(Cl)cc1)Nc1ccc(Br)cn1", "note": "[HI-255, N-[2-(4-chlorophenethyl)]-N′-[2-(5-bromopyridyl)]thiourea]", "values": [{"measurement": "IC50", "setting": "[2]", "result": 2500, "unit": "nM"}, {"measurement": "IC50", "setting": "[2]; [14]", "result": 2500, "unit": "nM"}, {"measurement": "IC50", "setting": "[3]; [13]", "result": 20800, "unit": "nM"}, {"measurement": "melting point", "result": "180 to 183", "unit": "°C"}]}, {"smiles": "S=C(NCCc1ccccc1)Nc1ccc(Br)cn1", "note": "[HI-275, N-[2-(5-Bromopyridinyl)]-N′-[2-(Phenethyl)] thiourea]", "values": [{"measurement": "IC50", "setting": "[2]; [10]", "result": 1300, "unit": "nM"}]}, {"smiles": "S=C(NCCc1ccccn1)Nc1ccc(Br)cn1", "note": "[Trovirdine, reference compound]", "values": [{"measurement": "CC50", "setting": "[4]; Table 1, cytotoxicity, MTA", "result": "> 100000", "unit": "nM"}, {"measurement": "IC50", "setting": "[3]; Table 1, p24 production in PBMC, read-out: IC50 HTLV mB", "result": 7, "unit": "nM"}, {"measurement": "IC50", "setting": "[3]; Table 2, wild-type HIV-1, read-out: IC50 p24", "result": 7, "unit": "nM"}, {"measurement": "times less potent than HI-244", "setting": "[5]; RT-MDR strain", "result": 20, "unit": "times"}, {"measurement": "IC50", "setting": "[5]; Table 1, p24 production in PBMC, read-out: IC50 RT-MDR (Y106A)", "result": 20, "unit": "nM"}, {"measurement": "IC50", "setting": "[6]; Table 1, p24 production in PBMC", "result": 500, "unit": "nM"}]}, {"smiles": "COc1ccc(CCNC(=S)Nc2ccc(Br)cn2)cc1", "note": "[HI-238, N-[2-(4-methoxyphenethyl)]-N′-[2-(5-bromopyridyl)]thiourea]", "values": [{"measurement": "CC50", "setting": "[1]", "result": "> 100000", "unit": "nM"}, {"measurement": "IC50", "setting": "[2]", "result": 900, "unit": "nM"}, {"measurement": "IC50", "setting": "[2]; [14]", "result": 900, "unit": "nM"}, {"measurement": "IC50", "setting": "[3]; [12]", "result": 15, "unit": "nM"}, {"measurement": "IC50", "setting": "[3]; [13]", "result": 15, "unit": "nM"}, {"measurement": "melting point", "result": "178 to 179", "unit": "°C"}]}, {"smiles": "O=[N+]([O-])c1ccc(CCNC(=S)Nc2ccc(Br)cn2)cc1", "note": "[HI-231]", "values": [{"measurement": "IC50", "setting": "[2]; [10]", "result": "> 100000", "unit": "nM"}, {"measurement": "IC50", "setting": "[2]; [11]", "result": "> 100000", "unit": "nM"}]}]}
